# Target: Escherichia coli DNA gyrase A/B tetramer (Escherichia coli (strain K12), UniProt P0AES4+P0AES6)
# Test: DNA gyrase supercoiling activity fluorescence polarisation assay
# Format: biochemical
# Settings: 5 nM enzyme, relaxed plasmid, 0.3 mM ATP, ambient temperature; read-out: E. coli DNA gyrase supercoiling IC50
# How it was run: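 Supercoiling reactions quenched with 40 nM 5′-BODIPY-FL triplex-forming oligonucleotide probe in pH 3.5 NaCl/sodium acetate buffer; after 60 min, fluorescence anisotropy read (ex 485/em 535 nm). IC50 by nonlinear regression, normalised to 0.8% DMSO (100% activity) and 5 μM ciprofloxacin (0% activity).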
row,SMILES,IC50 [nM]
1,"COCCNc1nccc(-c2noc3c(F)c4c(cc23)CC2(C(=O)NC(=O)NC2=O)[C@H]2[C@H](C)O[C@H](C)CN42)n1 [Example 170, (2R,4S,4aS)-11-fluoro-8-(2-(2-methoxyethylamino)pyrimidin-4-yl)-2,4-dimethyl-2,4,4a,6-tetrahydro-1H,1′H-spiro[isoxazolo[4,5-g][1,4]oxazino[4,3-a]quinoline-5,5′-pyrimidine]-2′,4′,6′(3′H)-trione]",700
2,"C[C@@H]1CN2c3c(cc4c(-c5ccnc(NCCO)n5)noc4c3F)CC3(C(=O)NC(=O)NC3=O)[C@H]2[C@H](C)O1 [Example 171, (2R,4S,4aS)-11-fluoro-8-(2-(2-hydroxyethylamino)pyrimidin-4-yl)-2,4-dimethyl-2,4,4a,6-tetrahydro-1H,1′H-spiro[isoxazolo[4,5-g][1,4]oxazino[4,3-a]quinoline-5,5′-pyrimidine]-2′,4′,6′(3′H)-trione]",300
3,"COc1nccc(-c2noc3c(F)c4c(cc23)CC2(C(=O)NC(=O)NC2=O)[C@H]2[C@H](C)O[C@H](C)CN42)n1 [Example 172, (2R,4S,4aS)-11-fluoro-8-(2-methoxypyrimidin-4-yl)-2,4-dimethyl-2,4,4a,6-tetrahydro-1H,1′H-spiro[isoxazolo[4,5-g][1,4]oxazino[4,3-a]quinoline-5,5′-pyrimidine]-2′,4′,6′(3′H)-trione]",900
4,"C[C@@H]1CN2c3c(cc4c(-c5ccnc(C#N)n5)noc4c3F)CC3(C(=O)NC(=O)NC3=O)[C@H]2[C@H](C)O1 [Example 173, 4-((2R,4S,4aS)-11-fluoro-2,4-dimethyl-2′,4′,6′-trioxo-2,2′,3′,4,4a,4′,6,6′-octahydro-1H,1′H-spiro[isoxazolo[4,5-g][1,4]oxazino[4,3-a]quinoline-5,5′-pyrimidine]-8-yl)pyrimidine-2-carbonitrile]",100
5,"C[C@@H]1CN2c3c(cc4c(-c5ccnc(N)n5)noc4c3F)CC3(C(=O)NC(=O)NC3=O)[C@H]2[C@H](C)O1 [Example 174, (2R,4S,4aS)-8-(2-aminopyrimidin-4-yl)-11-fluoro-2,4-dimethyl-2,4,4a,6-tetrahydro-1H,1′H-spiro[isoxazolo[4,5-g][1,4]oxazino[4,3-a]quinoline-5,5′-pyrimidine]-2′,4′,6′(3′H)-trione]",500
6,"C[C@@H]1CN2c3c(cc4c(-c5ccnc(O)n5)noc4c3F)CC3(C(=O)NC(=O)NC3=O)[C@H]2[C@H](C)O1 [Example 175, (2R,4S,4aS)-11-fluoro-8-(2-hydroxypyrimidin-4-yl)-2,4-dimethyl-1,2,4,4a-tetrahydro-2′H,6H-spiro[isoxazolo[4,5-g][1,4]oxazino[4,3-a]quinoline-5,5′-pyrimidine]-2′,4′,6′(1′H,3′H)-trione]",900
7,"C[C@@H]1CN2c3c(cc4c(-c5ccnc(N6CCOCC6)n5)noc4c3F)CC3(C(=O)NC(=O)NC3=O)[C@H]2[C@H](C)O1 [Example 176, (2R,4S,4aS)-11-fluoro-2,4-dimethyl-8-(2-morpholinopyrimidin-4-yl)-2,4,4a,6-tetrahydro-1H,1′H-spiro[isoxazolo[4,5-g][1,4]oxazino[4,3-a]quinoline-5,5′-pyrimidine]-2′,4′,6′(3′H)-trione]",3200
8,"C[C@@H]1CN2c3c(cc4c(-c5ncnn5C)noc4c3F)CC3(C(=O)NC(=O)NC3=O)[C@H]2[C@H](C)O1 [Example 178, (2R,4S,4aS)-11-fluoro-2,4-dimethyl-8-(1-methyl-1H-1,2,4-triazol-5-yl)-2,4,4a,6-tetrahydro-1H,1′H-spiro[isoxazolo[4,5-g][1,4]oxazino[4,3-a]quinoline-5,5′-pyrimidine]-2′,4′,6′(3′H)-trione]",1300

# — patent US9040528B2, “Chemical compounds 542” (AstraZeneca AB, priority 2008, dated 2015)
